Results published in the supplement of paper PMC10307832.

Key:
Test in all cases: relative viability (nuclei count vs DMSO), 5 days (fraction); higher = more cells survive
[1] = compound: Cn1cnc2c(F)c(Nc3ccc(Br)cc3Cl)c(C(=O)NOCCO)cc21 [Selumetinib] + Cc1nc(Nc2ncc(C(=O)Nc3c(C)cccc3Cl)s2)cc(N2CCN(CCO)CC2)n1 [Dasatinib] (partner 0.075 µM)
Procedure, shortened: (§1)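 Values are medians from duplicate plates. Each reflects relative viability, defined as the nuclei count of treated wells over that of vehicle wells. Lung cancer cell lines in 1536-well plates were pin-tool dosed one day after seeding with one drug alone or with a fixed anchor-drug dose plus five library-drug doses (not always all listed) in √10 steps, then fixed, stained and imaged at 4× after 5 days.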

[2] = compound: CC1(C)CCC(CN2CCN(c3ccc(C(=O)NS(=O)(=O)c4ccc(NCC5CCOCC5)c([N+](=O)[O-])c4)c(Oc4cnc5[nH]ccc5c4)c3)CC2)=C(c2ccc(Cl)cc2)C1 [Venetoclax] + Cc1cc(Nc2cc(N3CCN(C)CC3)nc(Sc3ccc(NC(=O)C4CC4)cc3)n2)n[nH]1 [Tozasertib] (partner 0.1 µM)
Procedure, shortened: as §1

[3] = compound: Cn1cnc2c(F)c(Nc3ccc(Br)cc3Cl)c(C(=O)NOCCO)cc21 [Selumetinib] + COc1cccc2cc(-c3nc([C@H]4CC[C@H](C(=O)O)CC4)n4ncnc(N)c34)[nH]c12 [OSI-027] (partner 0.5 µM)
Procedure, shortened: as §1

[4] = compound: Cn1cnc2c(F)c(Nc3ccc(Br)cc3Cl)c(C(=O)NOCCO)cc21 [Selumetinib] + Nc1nc2[nH]cc(CCc3ccc(C(=O)N[C@@H](CCC(=O)O)C(=O)O)cc3)c2c(=O)[nH]1 [Pemetrexed] (partner 0.2 µM)
Procedure, shortened: as §1

UMC-11
relative viability ([1]; first compound 0.02 µM): 0.465
relative viability ([1]; first compound 0.06325 µM): 0.486
relative viability ([1]; first compound 0.2 µM): 0.474
relative viability ([1]; first compound 0.6325 µM): 0.547
relative viability ([2]; first compound 0.01 µM): 0.205
relative viability ([2]; first compound 0.03162 µM): 0.213
relative viability ([2]; first compound 0.1 µM): 0.2
relative viability ([2]; first compound 0.3162 µM): 0.191
relative viability ([2]; first compound 1 µM): 0.187
relative viability ([3]; first compound 0.02 µM): 0.459
relative viability ([3]; first compound 0.06325 µM): 0.471
relative viability ([3]; first compound 0.2 µM): 0.379
relative viability ([3]; first compound 0.6325 µM): 0.45
relative viability ([4]; first compound 0.02 µM): 0.771
relative viability ([4]; first compound 0.06325 µM): 0.788
relative viability ([4]; first compound 0.2 µM): 0.827
relative viability ([4]; first compound 0.6325 µM): 0.903
